From patent US20220280587A1, “MEDICAL GELS CONTAINING A QUATERNARY AMMONIUM COMPOUND, PHENOXYETHANOL, ALOE VERA JUICE, AND NATURAL SPORICIDAL MOISTURIZERS” (priority 2021, published 2022)
≈ marks a conversion by molar mass, not a printed value.

Key:
Assay type in all cases: cell-based
C. botulinum spores = experiment: microbe, parasite or virus in culture; conditions: for MIC / MBC: Clostridium botulinum; for MIC: read-out: Sporostatic MIC (mM); for MBC: read-out: Sporicidal MIC (mM)
P. italicum = experiment: Antifungal combination of potassium sorbate and vanillin (MIC, FIC isobologram); conditions: Penicillium italicum
P. digitatum = experiment: as above; conditions: Penicillium digitatum
P. glabrum = experiment: as above
Pseudomonas aeruginosa = experiment: Bactericidal / inhibitory concentration against Pseudomonas aeruginosa

Molecule: CC=O [Acetaldehyde]
- MIC (C. botulinum spores): 0.78 mM (≈ 34.4 µg/mL)

Molecule: O=Cc1ccccc1 [Benzaldehyde]
- MIC (C. botulinum spores): 0.6 mM (≈ 63.7 µg/mL)

Molecule: O=CC=Cc1ccccc1 [Cinnamaldehyde]
- MIC (C. botulinum spores): 0.78 mM (≈ 103 µg/mL)

Molecule: CCCCCCC=O [Hepaldehyde]
- Sporicidal MIC (C. botulinum spores): >2500 mM
- Sporostatic MIC (C. botulinum spores): 0.60 mM

Molecule: CC(C)C=O [Isobutyraldehyde]
- MBC (C. botulinum spores): 39 mM (≈ 2810 µg/mL)
- MIC (C. botulinum spores): 0.6 mM (≈ 43.3 µg/mL)

Molecule: O=CCc1ccccc1 [Phenylacetaldehyde]
- MIC (C. botulinum spores): 0.6 mM (≈ 72.1 µg/mL)

Molecule: O=CC(=O)c1ccccc1 [Phenylglyoxal]
- MIC (C. botulinum spores): 0.6 mM (≈ 80.5 µg/mL)

Molecule: O=Cc1ccc2c(c1)OCO2 [Piperonal]
- MIC (C. botulinum spores): 0.6 mM (≈ 90.1 µg/mL)

Molecule: CC(=O)C=O [Pyruvaldehyde]
- Sporicidal MIC (C. botulinum spores): 156 mM
- Sporostatic MIC (C. botulinum spores): 2.44 mM

Molecule: CCCCC=O [Valeraldehyde]
- MIC (C. botulinum spores): 2.44 mM (≈ 210 µg/mL)

Molecule: COc1cc(C=O)ccc1O [Vanillin]
- MIC (P. italicum; potassium sorbate 0 PPM): 1100 µg/mL
- MIC (P. italicum; potassium sorbate 100 PPM): 300 µg/mL
- MIC (P. italicum; potassium sorbate 150 PPM): 100 µg/mL
- MBC (C. botulinum spores): 1.25 mM (≈ 190 µg/mL)
- MIC (C. botulinum spores): 0.6 mM (≈ 91.3 µg/mL)
- MIC (P. digitatum; potassium sorbate 0 PPM): 1100 µg/mL
- MIC (P. digitatum; potassium sorbate 50 PPM): 300 µg/mL
- MIC (P. digitatum; potassium sorbate 100 PPM): 100 µg/mL
- MIC (P. glabrum; potassium sorbate 0 PPM): 1200 µg/mL
- MIC (P. glabrum; potassium sorbate 100 PPM): 1100 µg/mL
- MIC (P. glabrum; potassium sorbate 300 PPM): 500 µg/mL
- MIC (P. glabrum; potassium sorbate 500 PPM): 100 µg/mL

Molecule: CCCCCC(C=O)=Cc1ccccc1 [α-Amylcinnamaldehyde]
- MIC (C. botulinum spores): 0.6 mM (≈ 121 µg/mL)

Molecule: benzalkonium chloride
- Concentration that kills Pseudomonas aeruginosa (Pseudomonas aeruginosa; benzalkonium chloride alone): 0.13%
- Concentration that kills Pseudomonas aeruginosa (Pseudomonas aeruginosa; when aloe vera juice is present at 10%): 0.10%
